Measured values from US7241760B2, “Heteroaryl-substituted imidazole derivatives” (Hoffmann-La Roche Inc., priority 2003, dated 2007).

Target: T1, human mGlu 5a receptor (Homo sapiens, UniProt P41594)
T1 construct: expressed in transfected cells; host or cells: EBNA cells (transient transfection); cell membrane homogenates
Experiment: [3H]MPEP competition binding on membranes of EBNA cells transfected with human mGlu 5a receptor
Settings: competition with [3H]MPEP (2 nM), 1 h at 4° C., membranes of transiently transfected EBNA cells; Ki=IC50/[1+L/Kd]
Protocol: For binding experiments, cDNA encoding human mGlu 5a receptor was transiently transfected into EBNA cells using a procedure described by Schlaeger and Christensen [Cytotechnology 15:1–13 (1998)]. Cell membrane homogenates were stored at −80° C. until the day of assay where upon they were thawed and resuspended and polytronised in 15 mM Tris-HCl, 120 mM NaCl, 100 mM KCl, 25 mM CaCl2, 25 mM MgCl2 binding buffer at pH 7.4 to a final assay concentration of 20 μg protein/well.
Saturation isotherms were determined by addition of twelve [^3H]MPEP concentrations (0.04–100 nM) to these membranes (in a total volume of 200 μl) for 1 h at 4° C. Competition experiments were performed with a fixed concentration of [^3H]MPEP (2 nM) and IC50 values of test compounds evaluated using 11 concentrations (0.3–10,000 nM). Incubations were performed for 1 h at 4° C.
At the end of the incubation, membranes were filtered onto unifilter (96-well white microplate with bonded GF/C filter preincubated 1 h in 0.1% PEI in wash buffer, Packard BioScience, Meriden, Conn.) with a Filtermate 96 harvester (Packard BioScience) and washed 3 times with cold 50 mM Tris-HCl, pH 7.4 buffer. Nonspecific binding was measured in the presence of 10 μM MPEP. The radioactivity on the filter was counted (3 min) on a Packard Top-count microplate scintillation counter with quenching correction after addition of 45 μl of microscint 40 (Can berra Packard S. A., Zürich, Switzerland) and shaking for 20 min. For functional assays, [Ca^2+]i measurements were performed as described previously by Porter et al. [Br. J. Pharmacol. 128:13–20 (1999)] on recombinant human mGlu 5a receptors in HEK-293 cells. The cells were dye loaded using Fluo 4-AM (obtainable by FLUKA, 0.2 μM final concentration). [Ca^2+]i measurements were performed using a fluorometric imaging plate reader (FLIPR, Molecular Devices Corporation, La Jolla, Calif., USA). Antagonist evaluation was performed following a 5 min preincubation with the test compounds followed by the addition of a submaximal addition of agonist.
The inhibition (antagonists) curves were fitted with a four parameter logistic equation giving IC50, and Hill coefficient using an iterative non linear curve fitting software (Xcel fit).
For binding experiments the Ki values of the compounds tested are given. The Ki value is defined by the following formula: Ki=IC50/[1+L/Kd] in which the IC50 values are those concentrations of the compounds tested which cause 50% inhibition of the competing radioligand ([^3H]MPEP). L is the concentration of radioligand used in the binding experiment and the Kd value of the radioligand is empirically determined for each batch of membranes prepared.

T1 sequence (P41594 21-1180 isoform P41594-2 limits assumed): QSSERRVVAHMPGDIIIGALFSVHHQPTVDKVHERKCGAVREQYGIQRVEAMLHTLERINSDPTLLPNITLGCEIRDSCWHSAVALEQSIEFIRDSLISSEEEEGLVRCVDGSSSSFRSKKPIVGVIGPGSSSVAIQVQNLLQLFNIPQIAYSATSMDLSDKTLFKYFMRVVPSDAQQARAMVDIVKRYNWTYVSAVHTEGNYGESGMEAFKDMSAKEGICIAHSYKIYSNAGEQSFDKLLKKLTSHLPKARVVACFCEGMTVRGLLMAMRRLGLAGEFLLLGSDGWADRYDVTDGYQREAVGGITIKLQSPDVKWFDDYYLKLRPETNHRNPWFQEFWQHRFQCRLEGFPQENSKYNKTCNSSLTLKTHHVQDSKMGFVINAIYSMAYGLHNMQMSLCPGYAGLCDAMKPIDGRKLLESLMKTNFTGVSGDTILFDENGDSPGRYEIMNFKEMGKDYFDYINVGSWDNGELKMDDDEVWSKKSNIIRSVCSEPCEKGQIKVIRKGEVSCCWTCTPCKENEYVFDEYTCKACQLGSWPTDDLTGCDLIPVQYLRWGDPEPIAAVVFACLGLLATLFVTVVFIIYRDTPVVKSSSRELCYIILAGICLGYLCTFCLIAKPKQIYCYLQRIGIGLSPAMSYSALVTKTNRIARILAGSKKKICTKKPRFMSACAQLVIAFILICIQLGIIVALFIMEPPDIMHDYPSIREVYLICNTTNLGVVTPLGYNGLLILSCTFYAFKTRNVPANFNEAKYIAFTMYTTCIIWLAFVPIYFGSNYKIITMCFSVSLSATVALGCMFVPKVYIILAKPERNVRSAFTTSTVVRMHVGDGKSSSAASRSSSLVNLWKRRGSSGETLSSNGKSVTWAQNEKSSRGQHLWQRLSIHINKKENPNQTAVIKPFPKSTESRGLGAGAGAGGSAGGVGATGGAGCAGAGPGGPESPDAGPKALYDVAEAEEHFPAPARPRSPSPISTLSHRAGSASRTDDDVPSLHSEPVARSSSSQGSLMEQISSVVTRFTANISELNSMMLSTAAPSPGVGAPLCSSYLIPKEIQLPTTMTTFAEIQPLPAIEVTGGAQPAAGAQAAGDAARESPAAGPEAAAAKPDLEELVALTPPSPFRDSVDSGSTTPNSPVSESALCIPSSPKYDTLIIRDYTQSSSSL

Structure (SMILES) | Ki [µM]
Cc1cc(-n2cc(C#Cc3cccc(Cl)c3)nc2C)cnn1 [Example 8, 5-[4-(3-Chloro-phenylethynyl)-2-methyl-imidazol-1-yl]-3-methyl-pyridazine] | 0.157
Cc1nc(C#Cc2cccc(Cl)c2)cn1-c1ccoc1 [Example 9, 4-(3-Chloro-phenylethynyl)-1-furan-3-yl-2-methyl-1H-imidazole] | 0.011
Cc1nc(C#Cc2cccc(C(F)(F)F)c2)cn1-c1ccc(Cl)nc1 [Example 33, 2-Chloro-5-[2-methyl-4-(3-trifluoromethyl-phenylethynyl)-imidazol-1-yl]-pyridine] | 0.066
COc1ccc(-n2cc(C#Cc3cccc(Cl)c3)nc2C)nn1 [Example 26, 3-[4-(3-Chloro-phenylethynyl)-2-methyl-imidazol-1-yl]-6-methoxy-pyridazine] | 0.094
Cc1nc(C#Cc2cccc(C#N)c2)cn1-c1cnccn1 [Example 22, 3-(2-Methyl-1-pyrazin-2-yl-1H-imidazol-4-ylethynyl)-benzonitrile] | 0.06
Cc1nc(C#Cc2cccc(Cl)c2)cn1-c1cccc(N2CCS(=O)(=O)CC2)n1 [Example 40, 4-{6-[4-(3-Chloro-phenylethynyl)-2-methyl-imidazol-1-yl]-pyridin-2-yl}-thiomorpholine-1,1-dioxide] | 0.068
Cc1cccc(-n2cc(C#Cc3cccc(C#N)c3)nc2C)n1 [Example 3, 3-[2-Methyl-1-(6-methyl-pyridin-2-yl)-1H-imidazol-4-ylethynyl]-benzonitrile] | 0.031

The remaining lines, values ahead:

Ki [µM] | Structure (SMILES)
0.009 | Cc1nc(C#Cc2cccc(Cl)c2)cn1-c1cccc(N2CCSCC2)n1 [Example 39, 4-{6-[4-(3-Chloro-phenylethynyl)-2-methyl-imidazol-1-yl]-pyridin-2-yl}-thiomorpholine]
0.099 | Cc1nc(C#Cc2cccc(C#N)c2)cn1-c1cncc(N(C)C)c1 [Example 38, 3-[1-(5-Dimethylamino-pyridin-3-yl)-2-methyl-1H-imidazol-4-ylethynyl]-benzonitrile]
0.032 | Cc1nc(C#Cc2cccc(Cl)c2)cn1-c1ccc(Cl)nn1 [Example 25, 3-Chloro-6-[4-(3-chloro-phenylethynyl)-2-methyl-imidazol-1-yl]-pyridazine]
0.039 | Cc1nc(C#Cc2cccc(C#N)c2)cn1-c1cncc(F)c1 [Example 35, 3-[1-(5-Fluoro-pyridin-3-yl)-2-methyl-1H-imidazol-4-ylethynyl]-benzonitrile]
0.063 | Cc1nc(C#Cc2cccc(Cl)c2)cn1-c1ncccn1 [Example 1, 2-[4-(3-Chloro-phenylethynyl)-2-methyl-imidazol-1-yl]-pyrimidine]
0.088 | Cc1ccc(-n2cc(C#Cc3cccc(C(F)(F)F)c3)nc2C)nc1 [Example 31, 5-Methyl-2-[2-methyl-4-(3-trifluoromethyl-phenylethynyl)-imidazol-1-yl]-pyridine]
0.13 | Cc1nc(C#Cc2cccc(Cl)c2)cn1-c1ccc(N(C)C)nn1 [Example 27, {6-[4-(3-Chloro-phenylethynyl)-2-methyl-imidazol-1-yl]-pyridazin-3-yl}-dimethyl-amine]
0.028 | Cc1nc(C#Cc2cccc(Cl)c2)cn1-c1nccc(C(F)(F)F)n1 [Example 2, 2-[4-(3-Chloro-phenylethynyl)-2-methyl-imidazol-1-yl]-4-trifluoromethyl-pyrimidine]
0.011 | COc1ccnc(-n2cc(C#Cc3cccc(C#N)c3)nc2C)n1 [Example 20, 3-[1-(4-Methoxy-pyrimidin-2-yl)-2-methyl-1H-imidazol-4-ylethynyl]-benzonitrile]
